# PMC9596378, “Discovery and molecular basis of subtype-selective cyclophilin inhibitors” (Nature Chemical Biology, 2022)
# Experiments:
# Cyp40 = Cyp40 (Homo sapiens, UniProt Q08752); assay: Competition anisotropy binding assay with A26-Fl; parameters: PPID (UniProtKB Entry Q08752: residues 1–183); made in house; host or cells: E. coli BL21(DE3); conditions: FP competition with 0.5 nM A26-Fl, 24 h
# Method: (§1) Adapted from previous work[52], cyclophilin in assay buffer (25 mM HEPES pH 8.0, 100 mM NaCl, 0.01% Triton X-100) at a pre-determined concentration from Supplementary Table 6 was incubated with 0.5 nM A26-Fl for 10 min at room temperature in a flat-bottom black untreated 96-well plate (Corning). Competitor macrocycle was then added to each well and incubated for 24 h. Final assay volume was 100 µL with 0.25% DMSO. Fluorescence anisotropy was then measured using a Tecan Spark plate reader using 492 nm/523 nm excitation/emission settings.
# CypE K218A = target: T1, CypE K218A (Homo sapiens, UniProt Q9UNP9, K218A); assay: Competition anisotropy binding assay with A26-Fl; conditions: FP competition with 0.5 nM A26-Fl, 24 h
# T1 construct: Lane 6- GS-CypE K218A (131-301);; His6 tag with thrombin site (pET28a LIC); GS remnant stays on the N-terminus (N, cleaved yes); host or cells: E. coli BL21(DE3)
# Method: as §1
# CypB = target: T2, CypB (Homo sapiens, UniProt P23284); assay: Competition anisotropy binding assay with A26-Fl; conditions: FP competition with 0.5 nM A26-Fl, 24 h
# T2 construct: PPIB (UniProtKB Entry P23284: residues 34–216); His6 with TEV site (2BT vector leader) (N); made in house; host or cells: E. coli BL21(DE3)
# Method: as §1
# PPIL1 = target: T3, PPIL1 (Homo sapiens, UniProt Q9Y3C6); assay: Competition anisotropy binding assay with A26-Fl; conditions: FP competition with 0.5 nM A26-Fl, 24 h
# T3 construct: PPIL1 (UniProtKB Entry Q9Y3C6: residues 1–166); made in house; host or cells: E. coli BL21(DE3)
# T3 sequence (Q9Y3C6 1-166): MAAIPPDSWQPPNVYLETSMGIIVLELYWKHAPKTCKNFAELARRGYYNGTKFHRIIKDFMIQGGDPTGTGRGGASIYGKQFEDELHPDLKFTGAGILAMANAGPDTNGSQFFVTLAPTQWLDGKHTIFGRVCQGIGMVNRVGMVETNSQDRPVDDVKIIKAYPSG
# Method: as §1
# CypE K217A = target: T4, CypE K217A (Homo sapiens, UniProt Q9UNP9, K217A); assay: Competition anisotropy binding assay with A26-Fl
# T4 construct: Lane 5- GS-CypE K217A (131-301);; His6 tag with thrombin site (pET28a LIC); GS remnant stays on the N-terminus (N, cleaved yes); host or cells: E. coli BL21(DE3)
# Method: as §1
# PPIL3 = target: T5, PPIL3 (Homo sapiens, UniProt Q9H2H8); assay: Competition anisotropy binding assay with A26-Fl; conditions: FP competition with 0.5 nM A26-Fl, 24 h
# T5 construct: PPIL3 (UniProtKB Entry Q9H2H8: residues 1–161); His6 tag with TEV site (2BT vector); SNA remnant stays on the N-terminus (N, cleaved yes); made in house; host or cells: E. coli BL21(DE3)
# Method: as §1
# CypA = target: T6, CypA (Homo sapiens, UniProt P62937); assay: Competition anisotropy binding assay with A26-Fl; conditions: FP competition with 0.5 nM A26-Fl, 24 h
# T6 construct: PPIA (UniProtKB Entry P62937: residues 1–165); made in house; host or cells: E. coli BL21(DE3)
# Method: as §1
# CypE K212A = target: T7, CypE K212A (Homo sapiens, UniProt Q9UNP9, K212A); assay: Competition anisotropy binding assay with A26-Fl; conditions: FP competition with 0.5 nM A26-Fl, 24 h
# T7 construct: Lane 4- GS-CypE K212A (131-301);; His6 tag with thrombin site (pET28a LIC); GS remnant stays on the N-terminus (N, cleaved yes); host or cells: E. coli BL21(DE3)
# Method: as §1
# CypD = CypD (Homo sapiens, UniProt P30405); assay: Competition anisotropy binding assay with A26-Fl; parameters: PPIF (UniProtKB Entry P30405: residues 45–207); made in house; host or cells: E. coli BL21(DE3); conditions: FP competition with 0.5 nM A26-Fl, 24 h
# Method: as §1
# His6-CypD = target: T8, His6-CypD (Homo sapiens, UniProt P30405); assay: Surface plasmon resonance analysis of CypD ligands; assay type: binding; conditions: immobilized CypD; read-out: KD CypD (SPR)
# T8 construct: PPIF (UniProtKB Entry P30405: residues 45–207); made in house; host or cells: E. coli BL21(DE3)
# Method: Adapting a previously used protocol, employing a Biacore T200 SPR, a Sensor S NTA (Biacore) chip was pre-loaded with 0.3 M NiCl2 and His6-CypD (50.24 nM, 1 µg mL^−1) within a solution of 10 mM HEPES, 150 mM NaCl, 0.005% Tween-20 and 1 mM TCEP (surface plasmon resonance (SPR) buffer). Protein was covalently immobilized subsequently with injection of 200 mM 1-ethyl-3-(3-dimethylaminopropyl)carbodiimide (EDC) 50 mM N-hydroxysuccinimide (NHS). EDC–NHS-activated chip was quenched by flowing 1 M ethanolamine over the chip. Compounds were dissolved in 1% DMSO/SPR buffer and flowed over the SPR chip. Binding analysis was conducted from raw sensorgram resonance unit (RU) values, where individual replicates represent kinetic fitted RU value during time of compound administration at each dose. RU values were normalized to DMSO treatment and the maximum RU value of 200 µM JOMBt. These values were evaluated using Prism v.9 by fitting one site-specific binding to calculate KD values.
# T2 sequence (P23284 34-216): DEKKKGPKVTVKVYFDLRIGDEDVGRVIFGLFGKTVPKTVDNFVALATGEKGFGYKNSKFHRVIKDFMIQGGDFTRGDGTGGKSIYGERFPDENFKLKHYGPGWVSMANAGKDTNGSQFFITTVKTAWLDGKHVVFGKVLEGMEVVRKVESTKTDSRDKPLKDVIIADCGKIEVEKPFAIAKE
# T5 sequence (Q9H2H8 whole entry, the tested form may be a part): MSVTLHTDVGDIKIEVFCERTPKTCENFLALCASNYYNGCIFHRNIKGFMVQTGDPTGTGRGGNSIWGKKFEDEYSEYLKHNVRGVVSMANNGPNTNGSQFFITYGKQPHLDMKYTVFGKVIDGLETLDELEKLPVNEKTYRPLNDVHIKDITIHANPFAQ
# Cyp40, sequence (Q08752 1-183): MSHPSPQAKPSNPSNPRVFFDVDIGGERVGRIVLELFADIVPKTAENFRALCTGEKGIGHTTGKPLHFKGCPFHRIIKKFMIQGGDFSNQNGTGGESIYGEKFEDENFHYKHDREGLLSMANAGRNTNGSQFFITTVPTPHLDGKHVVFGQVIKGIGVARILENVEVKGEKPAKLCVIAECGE
# T7 sequence (Q9UNP9 131-301 K212A): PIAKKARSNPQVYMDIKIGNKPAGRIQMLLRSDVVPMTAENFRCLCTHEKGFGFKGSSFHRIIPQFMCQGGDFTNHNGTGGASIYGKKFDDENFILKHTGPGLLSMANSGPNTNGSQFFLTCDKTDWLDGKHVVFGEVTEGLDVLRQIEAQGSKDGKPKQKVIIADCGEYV
# T6 sequence (P62937 whole entry, the tested form may be a part): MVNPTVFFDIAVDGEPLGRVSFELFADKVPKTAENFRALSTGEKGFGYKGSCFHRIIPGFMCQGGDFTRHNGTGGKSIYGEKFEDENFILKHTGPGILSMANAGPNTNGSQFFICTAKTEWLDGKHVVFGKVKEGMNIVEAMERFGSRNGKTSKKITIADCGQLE
# T1 sequence (Q9UNP9 131-301 K218A): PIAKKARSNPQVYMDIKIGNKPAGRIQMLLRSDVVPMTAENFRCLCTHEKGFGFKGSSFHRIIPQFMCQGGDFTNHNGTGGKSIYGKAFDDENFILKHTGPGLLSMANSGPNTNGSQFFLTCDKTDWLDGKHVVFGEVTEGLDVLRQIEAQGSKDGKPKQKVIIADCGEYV
# T4 sequence (Q9UNP9 131-301 K217A): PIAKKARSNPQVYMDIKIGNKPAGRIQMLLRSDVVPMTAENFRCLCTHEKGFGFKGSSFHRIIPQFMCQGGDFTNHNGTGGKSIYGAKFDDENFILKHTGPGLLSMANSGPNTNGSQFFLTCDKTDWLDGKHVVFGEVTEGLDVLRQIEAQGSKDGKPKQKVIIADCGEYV
# CypD, sequence (P30405 45-207): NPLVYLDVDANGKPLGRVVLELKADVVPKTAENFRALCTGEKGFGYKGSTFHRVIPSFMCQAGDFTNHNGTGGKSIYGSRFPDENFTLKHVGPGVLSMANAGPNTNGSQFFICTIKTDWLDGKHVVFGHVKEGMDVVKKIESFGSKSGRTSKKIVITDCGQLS
# T8 sequence (P30405 45-207): as above
Kd (His6-CypD) [nM],Compound,Ki (Cyp40) [nM],Ki (CypE K218A) [nM],Ki (CypB) [nM],Ki (PPIL1) [nM],less potent at competing A26-Fl from CypE K217A compared to wild-type CypE (CypE K217A) [fold],Ki (PPIL3) [nM],Ki (CypA) [nM],Ki (CypE K212A) [nM],Ki (CypD) [nM]
–,NC(=O)C1CCNC(=O)C=CC(=O)N2CCCC(Cc3ccccc3)(C2)C(=O)NC(Cc2ccc(-c3ccc(C=O)c(B(O)O)c3)cc2)C(=O)NCc2ccccc2CC(=O)N1 (stereo not shown) [Compound C3A],> 10000,250,5600,1100,40,> 10000,1800,98,520
19000,NCCOCCNC(=O)C1CCNC(=O)C=CC(=O)N2CCCC(C2)C(=O)NC(Cc2ccco2)C(=O)NCc2ccccc2CC(=O)N1 (stereo not shown) [JOMBt],–,–,–,–,–,–,–,–,–
